Literature values in US20190365933A1, “SOLVENT-FREE GADOLINIUM CONTRAST AGENTS” (Inventure, LLC, priority 2016, published 2019).
Like-named read-outs stand apart in the source and are kept apart here.

Structure (SMILES) | Conditional stability constant at pH 7.4 (log Keff) (complex of gadolinium with the named ligand, log value) | Thermodynamic stability constants pH 14 (log KGdL) (complex of gadolinium with the named ligand, pH 14, ligand entirely deprotonated, log value) | Conditional stability constant at pH 7.4 (log Keff) | Thermodynamic stability constants pH 14 (log KGdL) (pH 14)
O=C(O)CN1CCN(CC(=O)O)CCN(CC(=O)O)CCN(CC(=O)O)CC1 [DOTA, 1,4,7,10-tetraazacyclododecane-1,4,7,10-tetraacetic acid] | 17.2 | 24.7 |  | 
O=C(O)CNC(=O)CN1CCN(CC(=O)NCC(=O)O)CCN(CC(=O)NCC(=O)O)CCN(CC(=O)NCC(=O)O)CC1 [DOTA-(gly)4] |  |  | 12.7 | 14.54
